Assay results published in the NIST ThermoML archive (doi:10.1021/je800110r).
± gives the expanded uncertainty stated by the source.

Conditions: 323.15 K, Liquid, Vibrating tube method

Question: With CCCCCCCCCC [decane] as the compound, how does the mass density (19981 kPa) read?
Answer: 723.9 ± 2 kg/m3

Question: What about the mass density (20414 kPa) of the same compound?
Answer: 724.1 ± 2 kg/m3

Question: And the mass density (20537 kPa)?
Answer: 724.2 ± 2 kg/m3

Question: What about the mass density (20652 kPa) of the same compound?
Answer: 724.2 ± 2 kg/m3

Question: What about the mass density (20695 kPa) of the same compound?
Answer: 724.1 ± 2 kg/m3

Question: What about the mass density (20721 kPa) of the same compound?
Answer: 724.3 ± 2 kg/m3

Question: What about the mass density (20740 kPa) of the same compound?
Answer: 724.4 ± 2 kg/m3

Question: What about the mass density (20766 kPa) of the same compound?
Answer: 724.4 ± 2 kg/m3

Question: What about the mass density (20799 kPa) of the same compound?
Answer: 724.3 ± 2 kg/m3

Question: And the mass density (20826 kPa)?
Answer: 724.5 ± 2 kg/m3

Question: What about the mass density (20842 kPa) of the same compound?
Answer: 724.5 ± 2 kg/m3

Question: What about the mass density (20862 kPa) of the same compound?
Answer: 724.5 ± 2 kg/m3

Question: What about the mass density (20893 kPa) of the same compound?
Answer: 724.5 ± 2 kg/m3

Question: And the mass density (20916 kPa)?
Answer: 724.4 ± 2 kg/m3

Question: What about the mass density (20949 kPa) of the same compound?
Answer: 724.5 ± 2 kg/m3

Question: What about the mass density (20970 kPa) of the same compound?
Answer: 724.6 ± 2 kg/m3

Question: And the mass density (20990 kPa)?
Answer: 724.5 ± 2 kg/m3

Question: What about the mass density (21020 kPa) of the same compound?
Answer: 724.4 ± 2 kg/m3

Question: What about the mass density (21044 kPa) of the same compound?
Answer: 724.5 ± 2 kg/m3

Question: And the mass density (21064 kPa)?
Answer: 724.7 ± 2 kg/m3

Question: What about the mass density (21088 kPa) of the same compound?
Answer: 724.5 ± 2 kg/m3

Question: And the mass density (21254 kPa)?
Answer: 724.7 ± 2 kg/m3

Question: What about the mass density (21289 kPa) of the same compound?
Answer: 724.7 ± 2 kg/m3

Question: What about the mass density (21309 kPa) of the same compound?
Answer: 724.8 ± 2 kg/m3

Question: And the mass density (21334 kPa)?
Answer: 724.7 ± 2 kg/m3

Question: What about the mass density (21558 kPa) of the same compound?
Answer: 724.9 ± 2 kg/m3

Question: And the mass density (21597 kPa)?
Answer: 725 ± 2 kg/m3

Question: And the mass density (21615 kPa)?
Answer: 724.9 ± 2 kg/m3

Question: And the mass density (21681 kPa)?
Answer: 725 ± 2 kg/m3

Question: And the mass density (21707 kPa)?
Answer: 725.1 ± 2 kg/m3

Question: And the mass density (21732 kPa)?
Answer: 725.1 ± 2 kg/m3

Question: What about the mass density (21754 kPa) of the same compound?
Answer: 725.1 ± 2 kg/m3

Question: What about the mass density (21790 kPa) of the same compound?
Answer: 725.1 ± 2 kg/m3

Question: What about the mass density (21819 kPa) of the same compound?
Answer: 725.1 ± 2 kg/m3

Question: What about the mass density (21845 kPa) of the same compound?
Answer: 725.1 ± 2 kg/m3

Question: What about the mass density (21867 kPa) of the same compound?
Answer: 725.2 ± 2 kg/m3

Question: What about the mass density (21896 kPa) of the same compound?
Answer: 725.2 ± 2 kg/m3

Question: And the mass density (21926 kPa)?
Answer: 725.2 ± 2 kg/m3

Question: And the mass density (21955 kPa)?
Answer: 725.2 ± 2 kg/m3

Question: What about the mass density (21989 kPa) of the same compound?
Answer: 725.3 ± 2 kg/m3

Question: What about the mass density (22012 kPa) of the same compound?
Answer: 725.3 ± 2 kg/m3

Question: What about the mass density (22035 kPa) of the same compound?
Answer: 725.2 ± 2 kg/m3

Question: What about the mass density (22072 kPa) of the same compound?
Answer: 725.4 ± 2 kg/m3

Question: What about the mass density (22094 kPa) of the same compound?
Answer: 725.2 ± 2 kg/m3

Question: What about the mass density (22131 kPa) of the same compound?
Answer: 725.4 ± 2 kg/m3

Question: And the mass density (22154 kPa)?
Answer: 725.4 ± 2 kg/m3

Question: And the mass density (22183 kPa)?
Answer: 725.4 ± 2 kg/m3

Question: And the mass density (22207 kPa)?
Answer: 725.4 ± 2 kg/m3

Question: What about the mass density (22236 kPa) of the same compound?
Answer: 725.3 ± 2 kg/m3

Question: And the mass density (22271 kPa)?
Answer: 725.5 ± 2 kg/m3

Question: And the mass density (22302 kPa)?
Answer: 725.5 ± 2 kg/m3

Question: And the mass density (22328 kPa)?
Answer: 725.5 ± 2 kg/m3

Question: And the mass density (22359 kPa)?
Answer: 725.5 ± 2 kg/m3

Question: What about the mass density (22383 kPa) of the same compound?
Answer: 725.5 ± 2 kg/m3

Question: And the mass density (22410 kPa)?
Answer: 725.6 ± 2 kg/m3

Question: What about the mass density (22448 kPa) of the same compound?
Answer: 725.6 ± 2 kg/m3

Question: What about the mass density (22471 kPa) of the same compound?
Answer: 725.6 ± 2 kg/m3

Question: What about the mass density (22498 kPa) of the same compound?
Answer: 725.7 ± 2 kg/m3

Question: What about the mass density (22533 kPa) of the same compound?
Answer: 725.6 ± 2 kg/m3

Question: And the mass density (22563 kPa)?
Answer: 725.7 ± 2 kg/m3

Question: And the mass density (22583 kPa)?
Answer: 725.8 ± 2 kg/m3

Question: What about the mass density (22622 kPa) of the same compound?
Answer: 725.6 ± 2 kg/m3

Question: And the mass density (22654 kPa)?
Answer: 725.8 ± 2 kg/m3

Question: What about the mass density (22682 kPa) of the same compound?
Answer: 725.7 ± 2 kg/m3

Question: What about the mass density (23638 kPa) of the same compound?
Answer: 726.6 ± 2.1 kg/m3

Question: What about the mass density (23679 kPa) of the same compound?
Answer: 726.7 ± 2.1 kg/m3

Question: And the mass density (24027 kPa)?
Answer: 726.8 ± 2.1 kg/m3

Question: What about the mass density (24056 kPa) of the same compound?
Answer: 726.8 ± 2.1 kg/m3

Question: What about the mass density (24083 kPa) of the same compound?
Answer: 726.8 ± 2.1 kg/m3

Question: What about the mass density (24123 kPa) of the same compound?
Answer: 726.9 ± 2.1 kg/m3

Question: And the mass density (24146 kPa)?
Answer: 726.8 ± 2.1 kg/m3

Question: And the mass density (24177 kPa)?
Answer: 726.9 ± 2.1 kg/m3

Question: And the mass density (24209 kPa)?
Answer: 727 ± 2.1 kg/m3

Question: And the mass density (24240 kPa)?
Answer: 726.9 ± 2.1 kg/m3

Question: And the mass density (24281 kPa)?
Answer: 727 ± 2.1 kg/m3

Question: And the mass density (24323 kPa)?
Answer: 727 ± 2.1 kg/m3

Question: What about the mass density (24359 kPa) of the same compound?
Answer: 727 ± 2.1 kg/m3

Question: And the mass density (24392 kPa)?
Answer: 727 ± 2.1 kg/m3

Question: What about the mass density (24425 kPa) of the same compound?
Answer: 727 ± 2.1 kg/m3

Question: What about the mass density (24463 kPa) of the same compound?
Answer: 727 ± 2.1 kg/m3

Question: And the mass density (24511 kPa)?
Answer: 727.1 ± 2.1 kg/m3

Question: And the mass density (24544 kPa)?
Answer: 727.1 ± 2.1 kg/m3

Question: And the mass density (24568 kPa)?
Answer: 727.3 ± 2.1 kg/m3

Question: What about the mass density (24605 kPa) of the same compound?
Answer: 727.2 ± 2.1 kg/m3

Question: And the mass density (24671 kPa)?
Answer: 727.3 ± 2.1 kg/m3

Question: What about the mass density (25856 kPa) of the same compound?
Answer: 728 ± 2.1 kg/m3

Question: What about the mass density (25903 kPa) of the same compound?
Answer: 728.1 ± 2.1 kg/m3

Question: What about the mass density (25945 kPa) of the same compound?
Answer: 728.2 ± 2.1 kg/m3

Question: What about the mass density (25978 kPa) of the same compound?
Answer: 728.2 ± 2.1 kg/m3

Question: And the mass density (26015 kPa)?
Answer: 728.1 ± 2.1 kg/m3

Question: And the mass density (26052 kPa)?
Answer: 728.2 ± 2.1 kg/m3

Question: What about the mass density (26084 kPa) of the same compound?
Answer: 728.3 ± 2.1 kg/m3

Question: And the mass density (26113 kPa)?
Answer: 728.2 ± 2.1 kg/m3

Question: And the mass density (26150 kPa)?
Answer: 728.3 ± 2.1 kg/m3

Question: What about the mass density (26239 kPa) of the same compound?
Answer: 728.3 ± 2.1 kg/m3

Question: What about the mass density (26279 kPa) of the same compound?
Answer: 728.4 ± 2.1 kg/m3

Question: And the mass density (26309 kPa)?
Answer: 728.5 ± 2.1 kg/m3

Question: What about the mass density (26382 kPa) of the same compound?
Answer: 728.5 ± 2.1 kg/m3

Question: What about the mass density (26425 kPa) of the same compound?
Answer: 728.4 ± 2.1 kg/m3

Question: And the mass density (26468 kPa)?
Answer: 728.7 ± 2.1 kg/m3

Question: What about the mass density (26506 kPa) of the same compound?
Answer: 728.5 ± 2.1 kg/m3

Question: And the mass density (26540 kPa)?
Answer: 728.6 ± 2.1 kg/m3

Question: What about the mass density (26579 kPa) of the same compound?
Answer: 728.6 ± 2.1 kg/m3

Question: What about the mass density (26618 kPa) of the same compound?
Answer: 728.6 ± 2.1 kg/m3

Question: And the mass density (26657 kPa)?
Answer: 728.8 ± 2.1 kg/m3

Question: What about the mass density (26692 kPa) of the same compound?
Answer: 728.7 ± 2.1 kg/m3

Question: What about the mass density (27084 kPa) of the same compound?
Answer: 728.9 ± 2.1 kg/m3

Question: And the mass density (27120 kPa)?
Answer: 729 ± 2.1 kg/m3

Question: And the mass density (27152 kPa)?
Answer: 729.1 ± 2.1 kg/m3

Question: What about the mass density (27187 kPa) of the same compound?
Answer: 729.1 ± 2.1 kg/m3

Question: What about the mass density (27223 kPa) of the same compound?
Answer: 729.1 ± 2.1 kg/m3

Question: What about the mass density (27259 kPa) of the same compound?
Answer: 729.1 ± 2.1 kg/m3

Question: And the mass density (27290 kPa)?
Answer: 729.1 ± 2.1 kg/m3

Question: And the mass density (27331 kPa)?
Answer: 729.1 ± 2.1 kg/m3

Question: What about the mass density (27727 kPa) of the same compound?
Answer: 729.5 ± 2.1 kg/m3

Question: What about the mass density (27833 kPa) of the same compound?
Answer: 729.5 ± 2.1 kg/m3

Question: And the mass density (28265 kPa)?
Answer: 729.7 ± 2.1 kg/m3

Question: What about the mass density (28432 kPa) of the same compound?
Answer: 729.9 ± 2.1 kg/m3

Question: What about the mass density (29106 kPa) of the same compound?
Answer: 730.4 ± 2.1 kg/m3

Question: What about the mass density (29187 kPa) of the same compound?
Answer: 730.5 ± 2.1 kg/m3

Question: What about the mass density (29218 kPa) of the same compound?
Answer: 730.5 ± 2.1 kg/m3

Question: And the mass density (29260 kPa)?
Answer: 730.5 ± 2.1 kg/m3

Question: And the mass density (29336 kPa)?
Answer: 730.6 ± 2.1 kg/m3

Question: And the mass density (29452 kPa)?
Answer: 730.6 ± 2.1 kg/m3

Question: And the mass density (29479 kPa)?
Answer: 730.7 ± 2.1 kg/m3

Question: What about the mass density (29510 kPa) of the same compound?
Answer: 730.7 ± 2.1 kg/m3

Question: What about the mass density (29547 kPa) of the same compound?
Answer: 730.7 ± 2.1 kg/m3

Question: And the mass density (29594 kPa)?
Answer: 730.7 ± 2.1 kg/m3

Question: What about the mass density (31137 kPa) of the same compound?
Answer: 731.8 ± 2.1 kg/m3

Question: And the mass density (31166 kPa)?
Answer: 731.8 ± 2.1 kg/m3

Question: And the mass density (31206 kPa)?
Answer: 731.8 ± 2.1 kg/m3

Question: What about the mass density (32493 kPa) of the same compound?
Answer: 732.8 ± 2.1 kg/m3

Question: What about the mass density (32550 kPa) of the same compound?
Answer: 732.8 ± 2.1 kg/m3

Question: What about the mass density (32582 kPa) of the same compound?
Answer: 732.7 ± 2.1 kg/m3

Question: And the mass density (32606 kPa)?
Answer: 732.8 ± 2.1 kg/m3

Question: And the mass density (32634 kPa)?
Answer: 732.8 ± 2.1 kg/m3

Question: And the mass density (32659 kPa)?
Answer: 732.7 ± 2.1 kg/m3
